Several values for one entry are separate records, joined by “and”; a condition that tells them apart may be missing. Identical values can stand only once.
Tested on: 292921-168-R-J2-PDC spheroids with HUVEC/MSC, viability
Assay: Anticancer human tumor 292921-168-R-J2-PDC patient-derived pancreatic carcinoma cell line growth inhibition [TAK]
Settings: for viability, T/C: stronger effect = lower value
Source text: Combinatorial screen of targeted agents with TAK-243 and ipatasertib in multi-cell type tumor spheroids
A high-throughput screen of multi-cell type tumor spheroids was designed to identify active combinations of targeted small molecules and TAK-243 or ipatasertib. Complex spheroids include a stromal component modeled by human endothelial cells (HUVEC) and fibroblasts modeled by human mesenchymal stem cells (MSCs). The concentration ranges selected for each drug and investigational agent were based upon clinically achievable concentrations if the clinical Cmax of the agent was known.
Compounds. The drugs and investigational agents: TAK-243 (785004), ipatasertib (767898), everolimus (733504), selumetinib (741078), bortezomib (756655), trametinib (758246), ixazomib (758254), vemurafenib (761431), dabrafenib (764134), sapanisertib (764658), alpelisib (765974), and copanlisib (816437), were obtained from the National Cancer Institute (NCI) Developmental Therapeutics Program Chemical Repository. The FDA-approved anticancer drug set is available from the NCI Developmental Therapeutics Program. […] The stock solutions were prepared in dimethyl sulfoxide (DMSO, Sigma-Aldrich, St. Louis, MO, cat. D2650) at 800-fold the tested concentration and stored at -70 degrees C prior to their use. All drugs and investigational agents were tested over a range starting from a high concentration at or near the clinical Cmax and decreasing in half-log increments. If the clinical Cmax for an agent had not been determined, the highest concentration tested was 10 microM.
NCI60 Cell Culture. NCI60 cell lines were obtained from the NCI Developmental Therapeutics Program Tumor Repository. For each lot of cells, the Repository performed Applied Biosystems AmpFLSTR Identifiler testing with PCR amplification to confirm consistency with the published Identifier STR profile for each cell line. Cells were kept in continuous culture for no more than 20 passages. The optimal seeding densities for each of the cell lines at each time point assessed were determined prior to performing the concentration response studies. Briefly, the NCI60 human tumor lines were grown as monolayers in RPMI 1640 medium supplemented with 10% FBS and 2 mmol/L L-glutamine.
An additional 2 lines were from the NCI60 cell line panel including melanomas, MALME-3M and SK-MEL-2. Pooled donor human umbilical vein endothelial cells (HUVEC, Lonza, cat. CC-2519) and human mesenchymal stem cells (hMSC, Lonza, cat. PT-2501) were purchased from Lonza (Walkersville, MD).
PDMR cell lines were grown in complete medium (DC medium): Dulbecco's modified Eagle's medium (DMEM)/F12 supplemented with 5% fetal bovine serum (FBS), 2 mM L-glutamine, 100 U/mL penicillin and 100 µg/ml streptomycin, 0.4 µg/ml hydrocortisone, 10 ng/ml epidermal growth factor (EGF) recombinant human protein, 24 µg/mL adenine, and 0.1 mg/mL primocin. During culture from frozen stock vials, PDMR cells were cultured in the same medium containing 10 µM Y-27632 (see Table 3). The PDCs were cultured in complete DMEM/F12 media without 10 microM Y-27632 dihydrochloride for at least two passages prior to the screen. The pooled donor HUVEC and hMSC were cultured in endothelial cell growth medium 2 (PromoCell, Heidelberg, Germany, cat. C-22011) and mesenchymal stem cell growth medium 2 (PromoCell, cat. C-28009), respectively. For all experiments, HUVEC and hMSC were used at passages </=5.
For the pre-screen, cell seeding densities were determined from a titration spanning the range from 5,000 to 313 cells per well. The mct-spheroids including 60% malignant cells, 25% HUVEC and 15% MSC dispensed as a mixture into U-bottom Ultra-Low Attachment 384-well plates (Corning, NY)
High-throughput Drug Combination Screening.
Prior to their inoculation into 384-well plates, malignant cells, HUVEC, and hMSC were removed from T flasks using TrypLE express (Thermo Fisher Scientific, cat. 12605036) and harvested by centrifugation for 5 min at 233 x g. […]
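Note: spheroids exposed to drugs for seven days before readout.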

## CC(=O)Nc1cccc(-n2c(=O)n(C3CC3)c(=O)c3c(Nc4ccc(I)cc4F)n(C)c(=O)c(C)c32)c1
Compound 94.9 pM
  viability, T/C: 91.6% and 97.1%
Compound 0.0003 µM
  viability, T/C: 58.9% and 67.7%
Compound 0.000949 µM
  viability, T/C: 36.9% and 48.5%
Compound 0.003 µM
  viability, T/C: 25.6% and 25.7%
Compound 0.00949 µM
  viability, T/C: 17.6% and 20.3%
Compound 0.03 µM
  viability, T/C: 11.1%
Curve of compound
  IC50: 0.49 nM and 0.767 nM

## CC(C)CC(NC(=O)C(Cc1ccccc1)NC(=O)c1cnccn1)B(O)O (configuration not stated) + CC(C)NCC(C(=O)N1CCN(c2ncnc3c2C(C)CC3O)CC1)c1ccc(Cl)cc1
Curve of first compound, second compound 0.3 µM
  IC50: 4.58 nM
Curve of first compound, second compound 0.949 µM
  IC50: 4.11 nM
Curve of first compound, second compound 3 µM
  IC50: 4.07 nM
Curve of first compound, second compound 9.49 µM
  IC50: 3.99 nM
Curve of first compound, second compound 30 µM
  IC50: < 0.0316 nM
Second compound 0.3 µM, first compound 31.6 pM
  viability, T/C: 83.7%
Second compound 0.3 µM, first compound 0.0001 µM
  viability, T/C: 86.5%
Second compound 0.3 µM, first compound 0.000316 µM
  viability, T/C: 88.6%
Second compound 0.3 µM, first compound 0.001 µM
  viability, T/C: 89.3%
Second compound 0.3 µM, first compound 0.00316 µM
  viability, T/C: 69%
Second compound 0.3 µM, first compound 0.01 µM
  viability, T/C: 9.99%
Second compound 0.949 µM, first compound 31.6 pM
  viability, T/C: 80.2%
Second compound 0.949 µM, first compound 0.0001 µM
  viability, T/C: 81.7%
Second compound 0.949 µM, first compound 0.000316 µM
  viability, T/C: 83.5%
Second compound 0.949 µM, first compound 0.001 µM
  viability, T/C: 80.9%
Second compound 0.949 µM, first compound 0.00316 µM
  viability, T/C: 62.9%
Second compound 0.949 µM, first compound 0.01 µM
  viability, T/C: 6.56%
Second compound 3 µM, first compound 31.6 pM
  viability, T/C: 73.9%
Second compound 3 µM, first compound 0.0001 µM
  viability, T/C: 76.1%
Second compound 3 µM, first compound 0.000316 µM
  viability, T/C: 72.6%
Second compound 3 µM, first compound 0.001 µM
  viability, T/C: 78.6%
Second compound 3 µM, first compound 0.00316 µM
  viability, T/C: 62.1%
Second compound 3 µM, first compound 0.01 µM
  viability, T/C: 6.46%
Second compound 9.49 µM, first compound 31.6 pM
  viability, T/C: 64.1%
Second compound 9.49 µM, first compound 0.0001 µM
  viability, T/C: 63%
Second compound 9.49 µM, first compound 0.000316 µM
  viability, T/C: 58.7%
Second compound 9.49 µM, first compound 0.001 µM
  viability, T/C: 58.5%
Second compound 9.49 µM, first compound 0.00316 µM
  viability, T/C: 62.8%
Second compound 9.49 µM, first compound 0.01 µM
  viability, T/C: 4.62%
Second compound 30 µM, first compound 31.6 pM
  viability, T/C: 41.7%
Second compound 30 µM, first compound 0.0001 µM
  viability, T/C: 40.5%
Second compound 30 µM, first compound 0.000316 µM
  viability, T/C: 41.3%
Second compound 30 µM, first compound 0.001 µM
  viability, T/C: 42.8%
Second compound 30 µM, first compound 0.00316 µM
  viability, T/C: 38.7%
Second compound 30 µM, first compound 0.01 µM
  viability, T/C: 6.44%

Source: PubChem BioAssay AID2060357 (Molecular Pharmacology Branch, DTP, NCI, 2025)
